Results from PubChem BioAssay (NCI).
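The compound was tested at five concentrations on cells cultured in 96-well plates, with a 48-hour exposure period. GI50: concentration for 50% inhibition of growth. Definition used: TGI = concentration required for complete inhibition of growth.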

Assays:
Assay in all cases: NCI anticancer screen, dose series, 48 h
[1] = test system: A498 renal
[2] = test system: ACHN renal
[3] = test system: BT-549 breast
[4] = test system: CAKI-1 renal
[5] = test system: CCRF-CEM leukemia
[6] = test system: COLO 205 colon
[7] = test system: DU-145 prostate
[8] = test system: HCC-2998 colon
[9] = test system: HCT-116 colon
[10] = test system: HCT-15 colon
[11] = test system: HL-60(TB) leukemia
[12] = test system: HOP-62 NSCLC
[13] = test system: HS 578T breast
[14] = test system: HT29 colon
[15] = test system: K-562 leukemia
[16] = test system: KM12 colon
[17] = test system: LOX IMVI melanoma
[18] = test system: M14 melanoma
[19] = test system: MCF7 breast
[20] = test system: MDA-MB-231 breast
[21] = test system: MDA-MB-435
[22] = test system: NCI-H23 lung
[23] = test system: OVCAR-3 ovarian
[24] = test system: OVCAR-4 ovarian
[25] = test system: OVCAR-5 ovarian
[26] = test system: OVCAR-8 ovarian
[27] = test system: SF-268 CNS
[28] = test system: SF-295 CNS
[29] = test system: SF-539 CNS
[30] = test system: SK-MEL-28 melanoma
[31] = test system: SK-MEL-5 melanoma
[32] = test system: SK-OV-3 ovarian
[33] = test system: SNB-19 CNS
[34] = test system: SW-620 colon
[35] = test system: TK-10 renal
[36] = test system: U251 CNS
[37] = test system: UACC-257 melanoma
[38] = test system: UACC-62 melanoma
[39] = test system: UO-31 renal
[40] = test system: 786-0 renal
[41] = test system: A549 NSCLC
[42] = test system: EKVX NSCLC
[43] = test system: HOP-92 NSCLC
[44] = test system: IGROV1 ovarian
[45] = test system: MALME-3M melanoma
[46] = test system: MOLT-4 leukemia
[47] = test system: NCI-H226 lung
[48] = test system: NCI-H460 lung
[49] = test system: NCI-H522 lung
[50] = test system: NCI/ADR-RES ovarian
[51] = test system: PC-3 prostate
[52] = test system: RPMI-8226 leukemia
[53] = test system: RXF 393 renal
[54] = test system: SK-MEL-2 melanoma
[55] = test system: SN12C renal
[56] = test system: SNB-75 CNS
[57] = test system: SR leukemia

With `CC1(C)CC(C(=O)OCCCCCCCCCCC[P+](c2ccccc2)(c2ccccc2)c2ccccc2)C(C)(C)N1O` (centres undefined) the GI50 [1] was 353 nM, the TGI [1] was 1260 nM and the GI50 [2] was 422 nM. For the same molecule, the TGI [2] was 1480 nM, the GI50 [3] was 116 nM and the TGI [3] was 1050 nM. The GI50 [4] was 781 nM, the TGI [4] was 2320 nM and the GI50 [5] was 110 nM. The TGI [5] was 766 nM, the GI50 [6] was 168 nM and the TGI [6] was 330 nM. The GI50 [7] was 319 nM, the TGI [7] was 1390 nM and the GI50 [8] was 324 nM. It also gave a TGI [8] of 1520 nM, a GI50 [9] of 185 nM and a TGI [9] of 1080 nM. For the same molecule, the GI50 [10] was 870 nM, the TGI [10] was 2230 nM and the GI50 [11] was 35.5 nM. The TGI [11] was 130 nM, the GI50 [12] was 319 nM and the TGI [12] was 904 nM. The GI50 [13] was 354 nM, the TGI [13] was 1840 nM and the GI50 [14] was 210 nM. The TGI [14] was 1170 nM, the GI50 [15] was 85.2 nM and the TGI [15] was 784 nM. The GI50 [16] was 151 nM, the TGI [16] was 1130 nM and the GI50 [17] was 207 nM. The TGI [17] was 1050 nM, the GI50 [18] was 302 nM and the TGI [18] was 1080 nM. The GI50 [19] was 187 nM, the TGI [19] was 836 nM and the GI50 [20] was 252 nM. For the same molecule, the TGI [20] was 849 nM, the GI50 [21] was 274 nM and the TGI [21] was 1330 nM. It also gave a GI50 [22] of 271 nM, a TGI [22] of 1680 nM and a GI50 [23] of 132 nM. It also gave a TGI [23] of 835 nM, a GI50 [24] of 249 nM and a TGI [24] of 1400 nM. It also gave a GI50 [25] of 386 nM, a TGI [25] of 1380 nM and a GI50 [26] of 319 nM. For the same molecule, the TGI [26] was 1720 nM, the GI50 [27] was 394 nM and the TGI [27] was 1540 nM. For the same molecule, the GI50 [28] was 211 nM, the TGI [28] was 538 nM and the GI50 [29] was 324 nM. The TGI [29] was 1280 nM, the GI50 [30] was 653 nM and the TGI [30] was 1970 nM. For the same molecule, the GI50 [31] was 150 nM, the TGI [31] was 299 nM and the GI50 [32] was 248 nM. It also gave a TGI [32] of 711 nM, a GI50 [33] of 263 nM and a TGI [33] of 1240 nM. The GI50 [34] was 344 nM, the TGI [34] was 1450 nM and the GI50 [35] was 362 nM. It also gave a TGI [35] of 1670 nM, a GI50 [36] of 59.6 nM and a TGI [36] of 1110 nM. It also gave a GI50 [37] of 248 nM, a TGI [37] of 847 nM and a GI50 [38] of 253 nM. The TGI [38] was 1240 nM, the GI50 [39] was 972 nM and the TGI [39] was 2290 nM.

Work on `NC1=C(/C(N)=N/O)C(c2ccccc2)c2ccc3ccccc3c2O1` (centres undefined) yielded a GI50 [40] of 513 nM, a TGI [40] greater than 58000 nM and a GI50 [1] of 168 nM. It also gave a TGI [1] of 720 nM, a GI50 [41] of 617 nM and a TGI [41] greater than 100000 nM. For the same molecule, the GI50 [2] was 458 nM, the TGI [2] was 51100 nM and the GI50 [3] was 1110 nM. For the same molecule, the TGI [3] was 69600 nM, the GI50 [4] was 192 nM and the TGI [4] was 42300 nM. The GI50 [5] was 388 nM, the TGI [5] was greater than 62800 nM and the GI50 [6] was 456 nM. For the same molecule, the TGI [6] was 7260 nM, the GI50 [7] was 463 nM and the TGI [7] was greater than 37200 nM. It also gave a GI50 [42] of 1010 nM, a TGI [42] greater than 100000 nM and a GI50 [8] of 729 nM. For the same molecule, the TGI [8] was 15800 nM, the GI50 [9] was 444 nM and the TGI [9] was 30700 nM. For the same molecule, the GI50 [10] was 226 nM, the TGI [10] was 20100 nM and the GI50 [11] was 275 nM. For the same molecule, the TGI [11] was 788 nM, the GI50 [12] was 524 nM and the TGI [12] was greater than 100000 nM. The GI50 [43] was 579 nM, the TGI [43] was greater than 73100 nM and the GI50 [13] was 276 nM. It also gave a TGI [13] greater than 77600 nM, a GI50 [14] of 1160 nM and a TGI [14] greater than 100000 nM. It also gave a GI50 [44] of 459 nM, a TGI [44] greater than 64300 nM and a GI50 [15] of 145 nM. The TGI [15] was greater than 100000 nM, the GI50 [16] was 302 nM and the TGI [16] was 36400 nM. It also gave a GI50 [17] of 621 nM, a TGI [17] of 17200 nM and a GI50 [18] of 208 nM. It also gave a TGI [18] of 21100 nM, a GI50 [45] of 2290 nM and a TGI [45] greater than 76100 nM. For the same molecule, the GI50 [19] was 261 nM, the TGI [19] was 97400 nM and the GI50 [20] was 988 nM. It also gave a TGI [20] of 24500 nM, a GI50 [46] of 496 nM and a TGI [46] greater than 100000 nM. It also gave a GI50 [47] of 8010 nM, a TGI [47] of 77100 nM and a GI50 [22] of 479 nM. The TGI [22] was greater than 100000 nM, the GI50 [48] was 341 nM and the TGI [48] was 16100 nM. For the same molecule, the GI50 [49] was 145 nM, the TGI [49] was 26700 nM and the GI50 [50] was 57.8 nM. The TGI [50] was 1650 nM, the GI50 [23] was 225 nM and the TGI [23] was 675 nM. It also gave a GI50 [24] of 831 nM, a TGI [24] greater than 100000 nM and a GI50 [25] of 1190 nM. The TGI [25] was greater than 100000 nM, the GI50 [26] was 725 nM and the TGI [26] was greater than 92900 nM. For the same molecule, the GI50 [51] was 291 nM, the TGI [51] was greater than 100000 nM and the GI50 [52] was 380 nM. For the same molecule, the TGI [52] was 28900 nM, the GI50 [53] was 249 nM and the TGI [53] was 929 nM. It also gave a GI50 [27] of 1090 nM, a TGI [27] greater than 72600 nM and a GI50 [28] of 321 nM. For the same molecule, the TGI [28] was 7060 nM, the GI50 [29] was 242 nM and the TGI [29] was 885 nM. For the same molecule, the GI50 [54] was 19900 nM, the TGI [54] was greater than 100000 nM and the GI50 [30] was 11300 nM. For the same molecule, the TGI [30] was 51000 nM, the GI50 [31] was 369 nM and the TGI [31] was 9790 nM. For the same molecule, the GI50 [32] was 616 nM, the TGI [32] was greater than 100000 nM and the GI50 [55] was 603 nM. It also gave a TGI [55] of 31000 nM, a GI50 [33] of 471 nM and a TGI [33] greater than 100000 nM. It also gave a GI50 [56] of 108 nM, a GI50 [57] of 239 nM and a TGI [57] greater than 100000 nM. It also gave a GI50 [34] of 243 nM, a TGI [34] greater than 100000 nM and a GI50 [35] of 20200 nM. The TGI [35] was greater than 100000 nM, the GI50 [36] was 410 nM and the TGI [36] was 19800 nM. For the same molecule, the GI50 [37] was 25100 nM, the TGI [37] was greater than 100000 nM and the GI50 [38] was 112 nM. It also gave a TGI [38] of 15200 nM, a GI50 [39] of 348 nM and a TGI [39] greater than 84300 nM.
